Assay results as given in PubChem BioAssay AID1963444 (Molecular Pharmacology Branch, DTP, NCI, 2024).
Where “and” joins values, the source holds several entries; their conditions need not be identical. Identical values can stand only once.

Tested on: HSSY-II complex spheroid growth, percent test/control
Test: Anticancer human tumor HSSY-II cell line growth inhibition [Asc];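 further: spheroids exposed to drug for 7 days before reading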
Settings: for viability, T/C: stronger effect = lower value
Procedure, shortened: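 Stromal components (HUVEC and hMSC) are co-assembled with the cancer cells into multicellular spheroids. Drugs are then added singly or paired, at concentrations falling by half-log increments from a clinically achievable maximum, capped at 10 microM without known Cmax.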

[1] = curve of first compound, second compound 0.03 µM
[2] = curve of first compound, second compound 0.0949 µM
[3] = curve of first compound, second compound 0.3 µM
[4] = curve of first compound, second compound 0.949 µM
[5] = curve of first compound, second compound 3 µM
[6] = second compound 0.03 µM, first compound 0.0316 µM
[7] = second compound 0.03 µM, first compound 0.1 µM
[8] = second compound 0.03 µM, first compound 0.316 µM
[9] = second compound 0.03 µM, first compound 1 µM
[10] = second compound 0.03 µM, first compound 3.16 µM
[11] = second compound 0.03 µM, first compound 10 µM
[12] = second compound 0.0949 µM, first compound 0.0316 µM
[13] = second compound 0.0949 µM, first compound 0.1 µM
[14] = second compound 0.0949 µM, first compound 0.316 µM
[15] = second compound 0.0949 µM, first compound 1 µM
[16] = second compound 0.0949 µM, first compound 3.16 µM
[17] = second compound 0.0949 µM, first compound 10 µM
[18] = second compound 0.3 µM, first compound 0.0316 µM
[19] = second compound 0.3 µM, first compound 0.1 µM
[20] = second compound 0.3 µM, first compound 0.316 µM
[21] = second compound 0.3 µM, first compound 1 µM
[22] = second compound 0.3 µM, first compound 3.16 µM
[23] = second compound 0.3 µM, first compound 10 µM
[24] = second compound 0.949 µM, first compound 0.0316 µM
[25] = second compound 0.949 µM, first compound 0.1 µM
[26] = second compound 0.949 µM, first compound 0.316 µM
[27] = second compound 0.949 µM, first compound 1 µM
[28] = second compound 0.949 µM, first compound 3.16 µM
[29] = second compound 0.949 µM, first compound 10 µM
[30] = second compound 3 µM, first compound 0.0316 µM
[31] = second compound 3 µM, first compound 0.1 µM
[32] = second compound 3 µM, first compound 0.316 µM
[33] = second compound 3 µM, first compound 1 µM
[34] = second compound 3 µM, first compound 3.16 µM
[35] = second compound 3 µM, first compound 10 µM

## C=CC(=O)N1CCN(c2nc(=O)n(-c3c(C)ccnc3C(C)C)c3nc(-c4c(O)cccc4F)c(F)cc23)C(C)C1 (stereo not given) + CCN1C(C(=O)NC23CCC(C(=O)O)(CC2)CC3)C(c2cccc(Cl)c2F)C2(C(=O)Nc3cc(Cl)ccc32)C12CCCCC2
[1]
  IC50: 7.3 µM
[2]
  IC50: 2.58 µM
[3]
  IC50: < 0.0316 µM
[4]
  IC50: < 0.0316 µM
[5]
  IC50: < 0.0316 µM
[6]
  viability, T/C: 87.5%
[7]
  viability, T/C: 89.6%
[8]
  viability, T/C: 89.5%
[9]
  viability, T/C: 88%
[10]
  viability, T/C: 84.7%
[11]
  viability, T/C: 36.9%
[12]
  viability, T/C: 60.3%
[13]
  viability, T/C: 63.9%
[14]
  viability, T/C: 65.2%
[15]
  viability, T/C: 62.7%
[16]
  viability, T/C: 47.3%
[17]
  viability, T/C: 18.4%
[18]
  viability, T/C: 25.3%
[19]
  viability, T/C: 26.3%
[20]
  viability, T/C: 26%
[21]
  viability, T/C: 23.6%
[22]
  viability, T/C: 20.9%
[23]
  viability, T/C: 9.83%
[24]
  viability, T/C: 7.57%
[25]
  viability, T/C: 7.88%
[26]
  viability, T/C: 7.75%
[27]
  viability, T/C: 6.93%
[28]
  viability, T/C: 6.22%
[29]
  viability, T/C: 6.06%
[30]
  viability, T/C: 2.1%
[31]
  viability, T/C: 2.5%
[32]
  viability, T/C: 2.3%
[33]
  viability, T/C: 2.77%
[34]
  viability, T/C: 2.35%
[35]
  viability, T/C: 1.69%

## Cn1ncnc1[C@H]1c2n[nH]c(=O)c3cc(F)cc(c23)N[C@@H]1c1ccc(F)cc1 + Cc1c(S(C)(=O)=O)c(-c2cc(F)cc(N3CCN(c4ccc(NS(=O)(=O)c5ccc(NC(CCN6CCC(C(=O)OCCCP(=O)(O)O)CC6)CSc6ccccc6)c(S(=O)(=O)C(F)(F)F)c5)cc4)CC3)c2)c(-c2ccc(Cl)cc2)n1C(C)C
Curve of first compound, second compound 0.1 µM
  IC50: 0.0154 µM
Curve of first compound, second compound 0.316 µM
  IC50: 0.0127 µM
Curve of first compound, second compound 1 µM
  IC50: 0.00769 µM
Curve of first compound, second compound 3.16 µM
  IC50: 0.00869 µM
Curve of first compound, second compound 10 µM
  IC50: 0.00657 µM
Second compound 0.1 µM, first compound 0.000316 µM
  viability, T/C: 100%
Second compound 0.1 µM, first compound 0.001 µM
  viability, T/C: 98.9%
Second compound 0.1 µM, first compound 0.00316 µM
  viability, T/C: 81.1%
Second compound 0.1 µM, first compound 0.01 µM
  viability, T/C: 55.8%
Second compound 0.1 µM, first compound 0.0316 µM
  viability, T/C: 39.5%
Second compound 0.1 µM, first compound 0.1 µM
  viability, T/C: 23.1%
Second compound 0.316 µM, first compound 0.000316 µM
  viability, T/C: 97.6%
Second compound 0.316 µM, first compound 0.001 µM
  viability, T/C: 82%
Second compound 0.316 µM, first compound 0.00316 µM
  viability, T/C: 71.7%
Second compound 0.316 µM, first compound 0.01 µM
  viability, T/C: 55.5%
Second compound 0.316 µM, first compound 0.0316 µM
  viability, T/C: 33.6%
Second compound 0.316 µM, first compound 0.1 µM
  viability, T/C: 18.2%
Second compound 1 µM, first compound 0.000316 µM
  viability, T/C: 96.4%
Second compound 1 µM, first compound 0.001 µM
  viability, T/C: 82.2%
Second compound 1 µM, first compound 0.00316 µM
  viability, T/C: 63.4%
Second compound 1 µM, first compound 0.01 µM
  viability, T/C: 50.3%
Second compound 1 µM, first compound 0.0316 µM
  viability, T/C: 22.4%
Second compound 1 µM, first compound 0.1 µM
  viability, T/C: 13%
Second compound 3.16 µM, first compound 0.000316 µM
  viability, T/C: 95.8%
Second compound 3.16 µM, first compound 0.001 µM
  viability, T/C: 84.2%
Second compound 3.16 µM, first compound 0.00316 µM
  viability, T/C: 73.6%
Second compound 3.16 µM, first compound 0.01 µM
  viability, T/C: 47.5%
Second compound 3.16 µM, first compound 0.0316 µM
  viability, T/C: 21.6%
Second compound 3.16 µM, first compound 0.1 µM
  viability, T/C: 10.4%
Second compound 10 µM, first compound 0.000316 µM
  viability, T/C: 82.2%
Second compound 10 µM, first compound 0.001 µM
  viability, T/C: 75.5%
Second compound 10 µM, first compound 0.00316 µM
  viability, T/C: 65.4%
Second compound 10 µM, first compound 0.01 µM
  viability, T/C: 42.4%
Second compound 10 µM, first compound 0.0316 µM
  viability, T/C: 16.9%
Second compound 10 µM, first compound 0.1 µM
  viability, T/C: 11.3%

## O=C(c1cc(Cc2n[nH]c(=O)c3ccccc23)ccc1F)N1CCN(C(=O)C2CC2)CC1 + CCN1C(C(=O)NC23CCC(C(=O)O)(CC2)CC3)C(c2cccc(Cl)c2F)C2(C(=O)Nc3cc(Cl)ccc32)C12CCCCC2
[1]
  IC50: 1.76 µM
[2]
  IC50: 0.196 µM
[3]
  IC50: < 0.0316 µM
[4]
  IC50: < 0.0316 µM
[5]
  IC50: < 0.0316 µM
[6]
  viability, T/C: 81.5%
[7]
  viability, T/C: 75.1%
[8]
  viability, T/C: 84.5%
[9]
  viability, T/C: 63.6%
[10]
  viability, T/C: 34.5%
[11]
  viability, T/C: 14.1%
[12]
  viability, T/C: 52.9%
[13]
  viability, T/C: 52.4%
[14]
  viability, T/C: 47.2%
[15]
  viability, T/C: 38.5%
[16]
  viability, T/C: 18.7%
[17]
  viability, T/C: 9.39%
[18]
  viability, T/C: 23.5%
[19]
  viability, T/C: 20.9%
[20]
  viability, T/C: 18.3%
[21]
  viability, T/C: 15.5%
[22]
  viability, T/C: 9.8%
[23]
  viability, T/C: 6.14%
[24]
  viability, T/C: 6.91%
[25]
  viability, T/C: 7.91%
[26]
  viability, T/C: 6.69%
[27]
  viability, T/C: 7.17%
[28]
  viability, T/C: 6.79%
[29]
  viability, T/C: 5.66%
[30]
  viability, T/C: 3.25%
[31]
  viability, T/C: 2.79%
[32]
  viability, T/C: 3.26%
[33]
  viability, T/C: 2.73%
[34]
  viability, T/C: 2.56%
[35]
  viability, T/C: 3.28%

## CNC(C)C(=O)NC1CN(S(=O)(=O)c2cccc(S(=O)(=O)N3CCC4CCC(C(=O)NC(c5ccccc5)c5ccccc5)N4C(=O)C(NC(=O)C(C)NC)C3)c2)CCC2CCC(C(=O)NC(c3ccccc3)c3ccccc3)N2C1=O (stereo not given)
Compound 0.00316 µM
  viability, T/C: 102% and 96.8% and 85%
Compound 0.0316 µM
  viability, T/C: 89.1% [middle of 14 runs]
Compound alone, run of 10/24/2022
  IC50: > 1 µM
Compound alone, run of 11/15/2022
  IC50: > 1 µM
Curve of compound
  IC50: > 1 µM
